# Measured values: a melting point compilation (Tetko et al.)
row,SMILES,melting point
1,Nc1ccnc(N2CCCC2)n1,218 to 220 °C
2,CCOC(=O)c1sc2nc(C)nc(Cl)c2c1C,145 to 147 °C
3,NC(=O)C1CCC(C(F)(F)F)NC1 (centres undefined),127 to 129 °C
4,CS(=O)(=O)c1ccc(N)c(N)c1,125 to 127 °C
5,Cc1cc([N+](=O)[O-])ccc1OCCO,93 to 95 °C
6,OCc1nc(-c2ccco2)no1,123 to 125 °C
7,CC(C)(C)n1[nH]c(=O)cc1N,223 to 225 °C
8,COc1ccc(C(CN)NC(=O)OC(C)(C)C)cc1 (centres undefined),90 to 92 °C
9,CCCNc1nnc(S)s1,105 to 107 °C
10,O=Cc1cn(-c2ccccc2)nc1-c1cccnc1,110 to 112 °C
11,NC(=O)C1CNCCO1 (centres undefined),158 to 160 °C
12,CC(Cl)C(=O)c1ccc(Cl)cc1 (centres undefined),58 to 60 °C
13,CC(=O)c1cccc(-n2cnnn2)c1,155 to 157 °C
14,CS(=O)(=O)NCCC1CCCCN1 (centres undefined),105 to 107 °C
15,CC(=O)NC(C(=O)O)C1CCCC1 (centres undefined),172 to 174 °C
16,N#Cc1ccccc1Oc1ccc(N)cc1F,119 to 121 °C
17,COc1cc(C#N)ccn1,94 to 96 °C
18,Clc1ccc(N2CCCC2)nn1,115 to 116 °C
19,OCc1cncc2ccccc12,86 to 88 °C
20,CC(C)(C)OC(=O)NC(C#N)c1ccc(F)cc1 (centres undefined),85 to 87 °C
21,CCOC(C(=O)O)(c1ccccc1)c1ccccc1,113 to 115 °C
22,CC(C)N(CCC#N)S(C)(=O)=O,107 to 109 °C

row,SMILES,melting point
1,NC(=S)NC1CCCCCC1,89 to 91 °C
2,Clc1ccc(C2CNCCO2)cc1 (centres undefined),55 to 57 °C
3,ClCc1cn2cccnc2n1,125 to 127 °C
4,NNC(=O)CSc1n[nH]c(=O)[nH]c1=O,225 to 227 °C
5,CC(=O)NC1CCN(C(C)C)CC1,84 to 86 °C
6,N#Cc1cccc(N2CCCC2=O)c1,81 to 83 °C
7,CC(C)(C)OC(=O)Nc1ncon1,165 to 167 °C
8,Clc1ccc2[nH]c(C3CCCN3)nc2c1 (centres undefined),124 to 126 °C
9,O=[N+]([O-])c1ccc2nc(Br)sc2c1,201 to 203 °C
10,O=Cc1cc([N+](=O)[O-])ccc1OC(F)F,46 to 48 °C
11,Cc1nc(S)n(C2CCCCC2)c1C,218 to 220 °C
12,CN(C1CCCCC1)S(=O)(=O)c1ccc(N)cc1,142 to 144 °C
13,O=C(Nc1nncs1)C1CCNCC1,202 to 204 °C
14,Cc1c(C(=O)O)cnn1C1CCCC1,99 to 101 °C
15,NN1C(=O)NC(c2ccccc2)(c2ccccc2)C1=O,188 to 192 °C
16,Oc1cnnc(S)n1,244 to 246 °C
17,Cc1ccc(C#N)c(Sc2ccccc2)c1,59 to 61 °C
18,O=C(CCl)NCC1CCN(c2ccccc2)C1 (centres undefined),61 to 63 °C
19,COc1ccccc1S(=O)(=O)Cl,115 to 119 °C
20,NCc1nc(-c2cccs2)no1,141 to 143 °C
21,Cn1nc(Br)c2c(NCCN)ncnc21,120 to 122 °C
22,Nc1ncnc2c(F)cc(Br)cc12,343 to 345 °C

row,SMILES,melting point
1,Nc1nnc(-c2ccc3c(c2)CCC3)o1,273 to 275 °C
2,Cn1ccc(S(=O)(=O)N2CCNCC2)c1,129 to 131 °C
3,c1ccc(-c2nc[nH]n2)cc1,117 to 119 °C
4,N#Cc1cccc(COc2ccc(N)cc2F)c1,69 to 71 °C
5,CC(C)(C)c1cc(N)c(C#N)s1,99 to 101 °C
6,Cc1ccnc(-c2ccc(N)cc2)n1,118 to 120 °C
7,Nc1nc(C(F)(F)F)no1,97 to 99 °C
8,O=C(c1cccc(F)c1)c1ccccn1,37 to 39 °C
9,O=Cc1c[nH]nc1-c1ccccc1F,114 to 116 °C
10,CSc1nc2ncnc(Cl)c2s1,149 to 151 °C
11,O=C1NCC(Br)C(=O)N1 (centres undefined),200 to 202 °C
12,Cc1nc(-c2cccc([N+](=O)[O-])c2)no1,108 to 110 °C
13,NC(=O)c1ccn(-c2ccccc2)n1,149 to 151 °C
14,CCOc1cc2c(cc1CBr)OC(C)C2 (centres undefined),69 to 71 °C
15,O=C(CCl)Nc1ccc(N2CCCCC2)nc1,139 to 141 °C
16,CC(C)(C)OC(=O)NCC(C)(C)C(=O)O,116 to 118 °C
17,CCCN1CCCC(C(=O)O)C1 (centres undefined),137 to 139 °C
18,COc1ccc(-n2ccnc2SCC(=O)O)cc1,125 to 127 °C
19,O=C1CC2(CCCCC2)CC(=O)N1,169 to 171 °C
20,Cc1nn(-c2ccc(F)cc2F)c(C)c1C=O,129 to 131 °C
21,COc1ccc(CCCCCC(=O)O)cc1,46 to 48 °C
22,CNC(=O)C1CNCCO1 (centres undefined),93 to 95 °C

row,SMILES,melting point
1,NC(=O)C1CCCN(c2ccc(N)cn2)C1 (centres undefined),168 to 170 °C
2,OCC(c1ccc(Cl)cc1)N1CCNCC1 (centres undefined),116 to 118 °C
3,c1ccc2c(c1)NCCN2C1CC1,58 to 60 °C
4,CCOc1ccc(S(N)(=O)=O)cc1,152 to 154 °C
5,CN(C)S(=O)(=O)c1cccc(C(=O)NN)c1,149 to 151 °C
6,c1ccc(CCNc2nccs2)cc1,68 to 70 °C
7,CCc1ccc(C(=O)CCl)cc1,41 to 43 °C
8,CC(C)(N)c1nnn[nH]1,251 to 253 °C
9,O=c1[nH]c(-c2cccnc2)no1,234 to 236 °C
10,Cc1ccc(O)c(-c2nc3ccccc3[nH]2)c1,259 to 261 °C
11,NCC(O)c1ccc(Cl)s1 (centres undefined),74 to 76 °C
12,CC(N)c1cccc(S(N)(=O)=O)c1 (centres undefined),27 to 29 °C
13,Cc1ccsc1C(N)=S,117 to 119 °C
14,CC(C)(C)OC(=O)N1CCCc2cc(N)ccc21,55 to 57 °C
15,COc1ccccc1OCC(=O)NN,101 to 103 °C
16,O=C1Cn2ccnc2CN1,179 to 181 °C
17,N#CCc1ccc(OCC2CO2)cc1 (centres undefined),52 to 54 °C
18,CCOc1ccccc1S(N)(=O)=O,154 to 156 °C
19,c1ccc2c(c1)NCCCS2,22 to 24 °C
20,O=[N+]([O-])c1ccc(-c2nnc(O)o2)cc1,249 to 251 °C
21,Cc1cc(N)n(Cc2ccccc2)n1,68 to 70 °C

# More lines, now with the values ahead:
row,melting point,SMILES
1,143 to 145 °C,COc1cc(N2CC(C(=O)O)CC2=O)cc(OC)c1OC (centres undefined)
2,274 to 276 °C,O=C(O)Cn1ccc(=O)c2ccccc21
3,169 to 171 °C,CC(C)CC(=O)N1Cc2ccccc2CC1C(=O)O (centres undefined)
4,188 to 190 °C,Cc1c(N)cc(C(N)=O)cc1F
5,111 to 113 °C,Nc1cc(N)c(F)cc1F
6,118 to 120 °C,CCN1C(=O)C(=O)c2ccc(Br)cc21
7,98 to 100 °C,CS(=O)(=O)Nc1ccc(Br)cc1Cl
8,101 to 103 °C,NC(=O)C(Cl)c1ccc(Br)cc1F (centres undefined)
9,170 to 172 °C,CCc1cc2oc(=O)cc(CCl)c2cc1Cl
10,142 to 144 °C,O=C(CCl)Nc1cc2c(cc1[N+](=O)[O-])OCO2
11,115 to 117 °C,O=C(O)c1cc(S(=O)(=O)Cl)ccc1Br
12,242 to 244 °C,CC1(C)CCc2[nH]c(=O)c(C(=O)O)cc2C1
13,141 to 150 °C,COC(=O)C(=O)CC(=O)c1ccc(OC)c(OC)c1
14,293 to 295 °C,Cc1[nH]c2ccnn2c(=O)c1CC(=O)O
15,137 to 139 °C,CCCCN(CC)c1ccc(C(=O)O)cc1
16,259 to 261 °C,O=C(O)C1CC(=O)N(c2cn[nH]c2)C1 (centres undefined)
17,169 to 171 °C,NC(=O)C(CC(=O)O)NC(=O)OCc1ccccc1 (centres undefined)
18,206 to 208 °C,Cc1oc(C(=O)O)cc1C(=O)CCl
19,232 to 234 °C,CNC(=O)c1cccc(C(=O)O)c1
20,201 to 203 °C,CCOc1cc(/C=C/C(=O)O)ccc1OCc1cccnc1
21,67 to 69 °C,Cc1nc(Cl)cc(-c2cccnc2)n1

row,melting point,SMILES
1,143 to 145 °C,O=C(O)c1ccc(OCC(F)(F)C(F)F)nc1
2,57 to 59 °C,O=[N+]([O-])c1cc(S(=O)(=O)C(F)(F)F)ccc1Cl
3,243 to 245 °C,O=C1CC(Cc2ccc(C(=O)O)cc2)C(=O)N1 (centres undefined)
4,282 to 284 °C,O=C(O)c1nc2[nH]c(-c3ccccc3)cc(=O)n2n1
5,161 to 163 °C,Nc1cc(F)cc(C(=O)O)c1F
6,124 to 126 °C,NC(=O)c1cccc(Cl)n1
7,192 to 194 °C,CC(=O)NCc1ccc(S(=O)(=O)NCC(=O)O)s1
8,246 to 248 °C,Cc1cc(C(N)=O)c2ccccc2n1
9,166 to 168 °C,CCc1ccc2c(c1)C(=O)C(=O)N2CC(=O)O
10,135 to 137 °C,CC(C(=O)O)S(=O)(=O)Cc1ccc(Br)cc1 (centres undefined)
11,149 to 151 °C,Cc1ccc(C)c(S(N)(=O)=O)c1
12,74 to 76 °C,CC(=O)c1cccc(S(=O)(=O)N(C)C)c1
13,107 to 109 °C,CC(O)c1c(Cl)nc2sccn12 (centres undefined)
14,113 to 115 °C,CCOC(=O)c1ccc(-n2c(C)cc(C=O)c2C)cc1
15,201 to 203 °C,O=C(O)c1cc(Cl)c(Cl)cc1C(=O)O
16,281 to 283 °C,O=C1COc2cc(Br)c(Cl)cc2N1
17,177 to 179 °C,O=C(O)c1cc2ccccc2c(OCC2CC2)n1
18,79 to 81 °C,Cc1cc2c(Cl)ncnc2s1
19,185 to 187 °C,CCOc1cc(C(=O)O)c(N)cc1OC
20,140 to 147 °C,O=C(O)Cc1csc(-c2ccccn2)n1
21,344 to 346 °C,O=C(O)c1ccc2c(=O)[nH]c(CCl)nc2c1

row,melting point,SMILES
1,67 to 71 °C,CC(=O)CC(=O)c1ccc(Cl)cc1
2,199 to 201 °C,Cn1c(-c2ccccc2)cnc1SCC(=O)O
3,61 to 63 °C,Cc1cccc(C(C)C(=O)O)c1 (centres undefined)
4,128 to 130 °C,COC(=O)C1=C(C)NC(C)=C(C(=O)OC)C1C(=O)O
5,191 to 193 °C,O=C(O)c1cnoc1-c1ccc(Cl)s1
6,162 to 164 °C,COC(=O)c1nc(Cl)c2ccccc2c1O
7,145 to 147 °C,O=C(C=NO)Nc1ccc(F)cc1Cl
8,252 to 254 °C,NC1CCCN(c2cc(C(=O)O)ccn2)C1 (centres undefined)
9,167 to 169 °C,O=C(O)c1cc(I)cc([N+](=O)[O-])c1
10,141 to 143 °C,Cc1ccc(Br)cc1NC(=O)CN
11,139 to 141 °C,O=C(O)CN1CC(=O)NC1=O
12,297 to 299 °C,NC(=O)c1cccnc1S
13,138 to 140 °C,O=C(O)c1cccc(OCC(F)(F)F)n1
14,110 to 112 °C,COCCC(=O)Nc1ccc(F)cc1C(=O)O
15,82 to 84 °C,COc1cc(F)c(S(=O)(=O)Cl)cc1OC
16,173 to 175 °C,CCOc1cc(C(=O)O)ccc1C
17,178 to 183 °C,O=C(O)C1CCN(C(=O)Nc2ccccc2)CC1
18,80 to 82 °C,NC1CCN(c2ccc(Cl)cc2)C1=O (centres undefined)
19,230 to 232 °C,O=C(CCl)Nc1ccc(C(=O)O)cc1
20,169 to 171 °C,COc1ccc(S(N)(=O)=O)cc1NC(=O)CCl
